Reference: US9867376B2, “Herbicidal compositions comprising N-tetrazol-5-yl)- or N-(triazol-5-yl)arylcarboxamides” (priority 2012, dated 2018)

Experiments:
Type in all cases: in vivo
Echinochloa crus-galli = assay: Greenhouse trial, post-emergence, visual herbicidal effect
Method: (§1) The weed seeds were sown in pots (diameter 8 cm) with sandy loam soil and germinated under optimum conditions. The herbides were applied by the post-emergence method onto the pots with the cultures, at a spray volume of 300 I/ha. The herbicides were applied on their own and in combination. The trial was conducted in a greenhouse under optimum growth conditions. The herbicidal effects were assessed visually by comparison of untreated and treated plants. The percentages mean: 0%=no effects, 100%=the plants die off completely). The percentages are used to calculate interactions between individual treatments and combination treatment according to S. R. Colby, Weeds 15, pages 20 to 22 (1967).
(§2) The abbreviations denote: • a.i.=active ingredient • E^C=expected value according to Colby (E^C=A+B−A×B100) • Δ=difference (%) of the measured value to the expected value (%) (measured value minus expected value)
(§3) Evaluation: • measured value E is greater than E^C:→synergism (+Δ) • measured value E equals E^C:→additive effect • measured value E is smaller than E^C:→antagonism (−Δ)

[1] = tested on: broad-leaved weeds/weed grasses; assay: Field trial, post-emergence, visual scoring (species not listed above); settings: dosage 25 g of a.i./ha
Method: (§4) The tests were conducted outdoors (plot trials, 10 m^2 per plot, 2 repetitions, spray application with 200-300 liters of water per hectare). Crops and broad-leaved weeds/weed grasses were sown under customary field conditions. In addition, a natural weed flora also appeared. Application was by the post-emergence method. The application rates of the herbicidally active compounds applied on their own or in combinations are likewise shown in the tables below. Evaluations were by visual scoring (using a 0-100% scale) after application by comparison of treated and untreated test variants.
as §2, §3

Polygonum convolvulus = assay: Greenhouse trial, post-emergence, visual herbicidal effect; settings: alone
Method: as §1, §2, §3

Xanthium strumarium = assay: as above; settings: alone
Method: as §1, §2, §3

Setaria viridis [2] = assay: Field trial, post-emergence, visual scoring; settings: alone
Method: as §4, §2, §3

Veronica hederifolia = assay: Field trial, post-emergence, visual scoring; settings: alone, 25 g of a.i./ha
Method: as §4, §2, §3

Sida spinosa = assay: Field trial, post-emergence, visual scoring; settings: alone
Method: as §4, §2, §3

Centaurea cyanis = assay: Greenhouse trial, post-emergence, visual herbicidal effect; settings: alone
Method: as §1, §2, §3

Papaver rhoeas = assay: as above; settings: alone
Method: as §1, §2, §3

Viola tricolor = assay: as above; settings: alone
Method: as §1, §2, §3

Galium aparine = assay: Field trial, post-emergence, visual scoring; settings: alone
Method: as §4, §2, §3

Lolium multiflorum = assay: Field trial, post-emergence, visual scoring; settings: alone
Method: as §4, §2, §3

Cassia obtusifolia = assay: Field trial, post-emergence, visual scoring; settings: alone
Method: as §4, §2, §3

Avena fatua = assay: Greenhouse trial, post-emergence, visual herbicidal effect; settings: alone
Method: as §1, §2, §3

Phalaris minor = assay: as above; settings: Table 5-03, greenhouse, alone, 2 g of a.i./ha
Method: as §1, §2, §3

Ambrosia artemisiifolia = assay: as above; settings: alone
Method: as §1, §2, §3

Bidens pilosa = assay: as above
Method: as §1, §2, §3

Brachiaria platyphylla = assay: as above
Method: as §1, §2, §3

Digitaria sanguinalis = assay: as above
Method: as §1, §2, §3

Pharbitis purpurea = assay: as above; settings: alone
Method: as §1, §2, §3

Setaria viridis [3] = assay: as above; settings: alone
Method: as §1, §2, §3

Portulaca oleracea = assay: Field trial, post-emergence, visual scoring; settings: Table 5-16, field, alone, 50 g of a.i./ha
Method: as §4, §2, §3

Compound: Cn1nnnc1NC(=O)c1ccc(C(F)(F)F)nc1Cl [A4-7]
- Activity [%] against Echinochloa crus-galli (Echinochloa crus-galli; Greenhouse, dosage 3 g of a.i./ha, Table 5-115): 50%
- Activity [%] against Stellaria media ([1]; Table 5-116): 60%

Compound: COc1c(S(C)(=O)=O)ccc(C(=O)Nc2nnnn2C)c1Cl [A1-67]
- Activity [%] against Polygonum convolvulus (Polygonum convolvulus; Table 5-78, greenhouse, 4 g of a.i./ha): 10%
- Activity [%] against Xanthium strumarium (Xanthium strumarium; Table 5-77, greenhouse, 4 g of a.i./ha): 0%
- Activity [%] against Setaria viridis (Setaria viridis [2]; Table 5-80, field, 25 g of a.i./ha): 65%
- Activity [%] against Veronica hederifolia (Veronica hederifolia; Table 5-79, field): 75%

Compound: O=C(O)CNCP(=O)([O-])O.[K+] [glyphosate-potassium]
- Activity [%] against Sida spinosa (Sida spinosa; Table 5-11, field, 200 g of a.i./ha): 30%

Compound: Cc1c(C(=O)Nc2nnnn2C)ccc(S(C)(=O)=O)c1-n1cccn1 [A1-26]
- Activity [%] against Centaurea cyanis (Centaurea cyanis; Table 5-38, greenhouse, 3 g of a.i./ha): 40%
- Activity [%] against Centaurea cyanis (Centaurea cyanis; Table 5-40, greenhouse, 6 g of a.i./ha): 60%
- Activity [%] against Papaver rhoeas (Papaver rhoeas; Table 5-39, greenhouse, 6 g of a.i./ha): 50%
- Activity [%] against Papaver rhoeas (Papaver rhoeas; Table 5-41, greenhouse, 3 g of a.i./ha): 30%
- Activity [%] against Viola tricolor (Viola tricolor; Table 5-42, greenhouse, 3 g of a.i./ha): 50%

Compound: Cc1cc(Cl)ccc1OCC(=O)O [MCPA]
- Activity [%] against Galium aparine (Galium aparine; Table 5-61, field, 280 g of a.i./ha): 0%
- Activity [%] against Lolium multiflorum (Lolium multiflorum; Table 5-54, field, 280 g of a.i./ha): 0%
- Activity [%] against Setaria viridis (Setaria viridis [2]; Table 5-26, field, 280 g of a.i./ha): 0%
- Activity [%] against Setaria viridis (Setaria viridis [2]; Table 5-80, field, 280 g of a.i./ha): 0%

Compound: Cc1c(C(=O)c2cnn(C)c2O)ccc(S(C)(=O)=O)c1C1=NOCC1 [topramezone]
- Activity [%] against Setaria viridis (Setaria viridis [2]; Table 5-23, field, 9 g of a.i./ha): 30%

Compound: O=C(O)CNCP(=O)(O)O [glyphosate]
- Activity [%] against Cassia obtusifolia (Cassia obtusifolia; Table 5-12, field, 200 g of a.i./ha): 65%

Compound: Cn1nnnc1NC(=O)c1ccc(C(F)(F)F)cc1S(C)(=O)=O [A1-2]
- Activity [%] against Avena fatua (Avena fatua; Table 5-01, greenhouse, 2 g of a.i./ha): 0%
- Activity [%] against Phalaris minor (Phalaris minor): 0%
- Activity [%] against Viola tricolor (Viola tricolor; Table 5-02, greenhouse, 2 g of a.i./ha): 60%
- Activity [%] against Galium aparine (Galium aparine; Table 5-04, field, 25 g of a.i./ha): 70%

Compound: O=c1[nH]c2c(c(=O)n1C1CCCCC1)CCC2 [lenacil]
- Activity [%] against Ambrosia artemisiifolia (Ambrosia artemisiifolia; Table 5-29, greenhouse, 16 g of a.i./ha): 0%
- Activity [%] against Ambrosia artemisiifolia (Ambrosia artemisiifolia; Table 5-32, greenhouse, 4 g of a.i./ha): 0%
- Activity [%] against Bidens pilosa (Bidens pilosa; Greenhouse, dosage 4 g of a.i./ha): 0%
- Activity [%] against Bidens pilosa (Bidens pilosa; Table 5-28, greenhouse, alone, 4 g of a.i./ha): 0%
- Activity [%] against Bidens pilosa (Bidens pilosa; Table 5-33, greenhouse, alone, 4 g of a.i./ha): 0%
- Activity [%] against Bidens pilosa (Bidens pilosa; Table 5-71, greenhouse, alone, 400 g of a.i./ha): 0%
- Activity [%] against Brachiaria platyphylla (Brachiaria platyphylla; Greenhouse, dosage 4 g of a.i./ha, Table 5-109): 0%
- Activity [%] against Brachiaria platyphylla (Brachiaria platyphylla; Greenhouse, dosage 4 g of a.i./ha, Table 5-110): 0%
- Activity [%] against Brachiaria platyphylla (Brachiaria platyphylla; Table 5-55, greenhouse, alone, 4 g of a.i./ha): 0%
- Activity [%] against Brachiaria platyphylla (Brachiaria platyphylla; Table 5-57, greenhouse, alone, 4 g of a.i./ha): 0%
- Activity [%] against Brachiaria platyphylla (Brachiaria platyphylla; Table 5-67, greenhouse, alone, 800 g of a.i./ha): 0%
- Activity [%] against Digitaria sanguinalis (Digitaria sanguinalis; Table 5-35, greenhouse, alone, 4 g of a.i./ha): 0%
- Activity [%] against Digitaria sanguinalis (Digitaria sanguinalis; Table 5-68, greenhouse, alone, 400 g of a.i./ha): 0%
- Activity [%] against Echinochloa crus-galli (Echinochloa crus-galli; Table 5-69, greenhouse, alone, 400 g of a.i./ha): 0%
- Activity [%] against Pharbitis purpurea (Pharbitis purpurea; Table 5-30, greenhouse, 4 g of a.i./ha): 0%
- Activity [%] against Pharbitis purpurea (Pharbitis purpurea; Table 5-34, greenhouse, 4 g of a.i./ha): 0%
- Activity [%] against Pharbitis purpurea (Pharbitis purpurea; Table 5-72, greenhouse, 100 g of a.i./ha): 0%
- Activity [%] against Setaria viridis (Setaria viridis [3]; Table 5-27, greenhouse, 8 g of a.i./ha): 0%
- Activity [%] against Setaria viridis (Setaria viridis [3]; Table 5-31, greenhouse, 8 g of a.i./ha): 0%
- Activity [%] against Setaria viridis (Setaria viridis [3]; Table 5-70, greenhouse, 100 g of a.i./ha): 0%
- Activity [%] against Xanthium strumarium (Xanthium strumarium; Table 5-56, greenhouse, 4 g of a.i./ha): 0%
- Activity [%] against Xanthium strumarium (Xanthium strumarium; Table 5-73, greenhouse, 400 g of a.i./ha): 0%

Compound: Cc1c(C(=O)Nc2nnnn2C)ccc(C(F)(F)F)c1S(C)(=O)=O [A1-7]
- Activity [%] against Avena fatua (Avena fatua; Table 5-05, greenhouse, 3 g of a.i./ha): 0%
- Activity [%] against Avena fatua (Avena fatua; Table 5-07, greenhouse, 3 g of a.i./ha): 0%
- Activity [%] against Papaver rhoeas (Papaver rhoeas; Table 5-06, greenhouse, 3 g of a.i./ha): 60%
- Activity [%] against Polygonum convolvulus (Polygonum convolvulus; Table 5-08, greenhouse, 3 g of a.i./ha): 10%
- Activity [%] against Viola tricolor (Viola tricolor; Table 5-09, greenhouse, 3 g of a.i./ha): 50%

Compound: CP(=O)(O)CCC(N)C(=O)O (centres unmarked) [glufosinate-ammonium]
- Activity [%] against Sida spinosa (Sida spinosa; Table 5-10, field, 125 g of a.i./ha): 50%

Compound: Cn1ncnc1NC(=O)c1ccc(C(F)(F)F)c(S(C)(=O)=O)c1Cl [A2-9]
- Activity [%] against Brachiaria platyphylla (Brachiaria platyphylla; Greenhouse, dosage 1 g of a.i./ha, Table 5-105): 0%
- Activity [%] against Digitaria sanguinalis (Digitaria sanguinalis; Greenhouse, dosage 2 g of a.i./ha): 65%
- Activity [%] against Echinochloa crus-galli (Echinochloa crus-galli; Greenhouse, dosage 1 g of a.i./ha, Table 5-108): 0%

Compound: COCCOCc1c(S(C)(=O)=O)ccc(C(=O)Nc2nnnn2C)c1Cl [A1-63]
- Activity [%] against Bidens pilosa (Bidens pilosa; Table 5-71, greenhouse, alone, 8 g of a.i./ha): 50%
- Activity [%] against Brachiaria platyphylla (Brachiaria platyphylla; Table 5-67, greenhouse, alone, 8 g of a.i./ha): 10%
- Activity [%] against Digitaria sanguinalis (Digitaria sanguinalis; Table 5-68, greenhouse, alone, 8 g of a.i./ha): 45%
- Activity [%] against Echinochloa crus-galli (Echinochloa crus-galli; Table 5-69, greenhouse, alone, 8 g of a.i./ha): 85%
- Activity [%] against Pharbitis purpurea (Pharbitis purpurea; Table 5-72, greenhouse, 4 g of a.i./ha): 35%
- Activity [%] against Setaria viridis (Setaria viridis [3]; Table 5-70, greenhouse, 4 g of a.i./ha): 50%
- Activity [%] against Xanthium strumarium (Xanthium strumarium; Table 5-73, greenhouse, 8 g of a.i./ha): 80%
- Activity [%] against Veronica hederifolia (Veronica hederifolia; Table 5-74, field): 68%

Compound: COCc1nc(C(F)(F)F)ccc1C(=O)Nc1nnnn1C [A4-2]
- Activity [%] against Brachiaria platyphylla (Brachiaria platyphylla; Greenhouse, dosage 1 g of a.i./ha, Table 5-113): 0%
- Activity [%] against Stellaria media ([1]; Table 5-114): 63%

Compound: O=C(Nc1ccc(F)cc1F)c1cccnc1Oc1cccc(C(F)(F)F)c1 [diflufenican]
- Activity [%] against Lolium multiflorum (Lolium multiflorum; Table 5-58, field, 120 g of a.i./ha): 10%

Compound: CSc1nnc(C(C)(C)C)c(=O)n1N [metribuzin]
- Activity [%] against Portulaca oleracea (Portulaca oleracea): 0%
- Activity [%] against Sida spinosa (Sida spinosa; Table 5-21, field, 50 g of a.i./ha): 25%

Compound: COc1c(C(=O)Nc2nnnn2C)ccc(C(F)F)c1SC [A1-81]
- Activity [%] against Brachiaria platyphylla (Brachiaria platyphylla; Table 5-94, greenhouse, alone, 1 g of a.i./ha): 10%
- Activity [%] against Echinochloa crus-galli (Echinochloa crus-galli; Table 5-95, greenhouse, alone, 1 g of a.i./ha): 10%

Compound: COc1c(Cl)ccc(Cl)c1C(=O)O [dicamba]
- Activity [%] against Brachiaria platyphylla (Brachiaria platyphylla; Greenhouse, dosage 12.5 g of a.i./ha, Table 5-105): 0%
- Activity [%] against Brachiaria platyphylla (Brachiaria platyphylla; Table 5-64, greenhouse, alone, 25 g of a.i./ha): 10%
- Activity [%] against Brachiaria platyphylla (Brachiaria platyphylla; Table 5-94, greenhouse, alone, 12.5 g of a.i./ha): 0%
- Activity [%] against Digitaria sanguinalis (Digitaria sanguinalis; Greenhouse, dosage 12.5 g of a.i./ha): 0%
- Activity [%] against Echinochloa crus-galli (Echinochloa crus-galli; Greenhouse, dosage 12.5 g of a.i./ha, Table 5-108): 0%
- Activity [%] against Echinochloa crus-galli (Echinochloa crus-galli; Greenhouse, dosage 12.5 g of a.i./ha, Table 5-115): 0%
- Activity [%] against Echinochloa crus-galli (Echinochloa crus-galli; Table 5-95, greenhouse, alone, 12.5 g of a.i./ha): 0%
- Activity [%] against Setaria viridis (Setaria viridis [3]; Table 5-65, greenhouse, 25 g of a.i./ha): 0%

Compound: Cc1ccc2c(c1)[C@H](Nc1nc(N)nc(C(C)F)n1)[C@@H](C)C2 (some centres unmarked) [indaziflam]
- Activity [%] against Cassia obtusifolia (Cassia obtusifolia; Table 5-24, field, 25 g of a.i./ha): 65%
